Assay results as given in patent US8192962B2, “Processes for detecting toxic substances” (Daikin Industries, Ltd., priority 2001, dated 2012).

Tested on: Genes belonging to other category
Experiment: DNA chip mRNA expression in yeast, genes belonging to other category (Table 9)
Format: cell-based, Saccharomyces cerevisiae S288C
Protocol: Yeast (Saccharomyces cerevisiae S288C (α SUC2mal mel gap2 CUP1)) were incubated at 25° C. on YPD medium (yeast extract 1%, polypepton 2%, glucose 2%). One of toxic chemical substances was added to the cells at logarithmic growth phase, and the cells were further incubated for two hours. Cells were cultured without any chemical substance in the same condition, and were used as control. Concentrations of the chemical substances were defined to inhibit the growth of the yeast but not lead to death.
After completion of the incubation, the culture was centrifuged to collect the cells. To the cells, sodium acetate buffer (50 mM sodium acetate, 10 mM EDTA, 1% SDS) was added, and the mixture was shaken at 65° C. for five minutes, followed by returning to room temperature, and obtaining the supernatant, of which the procedures were repeated two times. To the supernatant, ½ amount of a solution of phenol/chloroform was added, and the mixture was centrifuged to give a supernatant, which was added with an equal amount of chloroform, and the mixture was centrifuged to give a supernatant. To the supernatant, an equal amount of isopropanol containing 0.3 M sodium acetate was added, and the mixture was allowed to stand at room temperature for 30 minutes, after which the mixture was centrifuged to give a sediment of the whole RNAs. Seventy % ethanol was added to the sediment, and the mixture was again centrifuged to give a sediment, which was then dried and dissolved in water. mRNA was isolated from the whole RNAs as followings. In view of the fact that a poly A chain is attached to the 3′ terminus of mRNA, a polynucleotide having a poly T structure which was immobilized on the surface of latex beads was used to trap the mRNA, and then the mRNA was washed and eluted with spine column (Oligotex-dT30<Super>mRNA Purification Kit, Takara). Reverse transcription of the mRNA was conducted with a reverse transcriptase (Super Script II Reverse Transcriptase; catalogue No. 18064-014, GibcoBRL) using fluorescence-labeled nucleotides to give cDNAs that were introduced with Cy3-dUTP or Cy5-dUTP during the reverse transcription.
The labeled cDNAs were dissolved in TE buffer (10mM Tris-HCl/1 mM EDTA, pH8.0), and the solution was dropped on the DNA chip containing the whole genes of yeast (DNA Chip Research Inc. Japan) so that the cDNAs were hybridized on the DNA chip at 65° C. for over 12 hours. The fluoresces intensity of the DNA chip was read with a scanner, and the ratio relative to the fluorescence intensity resulting from the absence of chemical substance was estimated as the following, which is shown in Tables 1 to 9: […]

Structure (SMILES): [Cl][Pb][Cl] [(4), PbCl2]
- The level of expressed mRNA in the presence of chemical substance/The level of expressed mRNA in the absence of chemical substance (yeast gene YAR010C): 0.8
- The level of expressed mRNA in the presence of chemical substance/The level of expressed mRNA in the absence of chemical substance (yeast gene YBL005W-A): 0.9
- The level of expressed mRNA in the presence of chemical substance/The level of expressed mRNA in the absence of chemical substance (yeast gene YBL041W): 1.0
- The level of expressed mRNA in the presence of chemical substance/The level of expressed mRNA in the absence of chemical substance (yeast gene YBL043W): 1.3
- The level of expressed mRNA in the presence of chemical substance/The level of expressed mRNA in the absence of chemical substance (yeast gene YBL078C): 2.6
- The level of expressed mRNA in the presence of chemical substance/The level of expressed mRNA in the absence of chemical substance (yeast gene YBR214W): 2.0
- The level of expressed mRNA in the presence of chemical substance/The level of expressed mRNA in the absence of chemical substance (yeast gene YCL020W): 1.1
- The level of expressed mRNA in the presence of chemical substance/The level of expressed mRNA in the absence of chemical substance (yeast gene YCL027W): 1.0
- The level of expressed mRNA in the presence of chemical substance/The level of expressed mRNA in the absence of chemical substance (yeast gene YCR071C): 0.8
- The level of expressed mRNA in the presence of chemical substance/The level of expressed mRNA in the absence of chemical substance (yeast gene YCR088W): 0.9
- The level of expressed mRNA in the presence of chemical substance/The level of expressed mRNA in the absence of chemical substance (yeast gene YDL008W): 1.1
- The level of expressed mRNA in the presence of chemical substance/The level of expressed mRNA in the absence of chemical substance (yeast gene YDL238C): 1.7
- The level of expressed mRNA in the presence of chemical substance/The level of expressed mRNA in the absence of chemical substance (yeast gene YDR055W): 2.8
- The level of expressed mRNA in the presence of chemical substance/The level of expressed mRNA in the absence of chemical substance (yeast gene YDR084C): 1.1
- The level of expressed mRNA in the presence of chemical substance/The level of expressed mRNA in the absence of chemical substance (yeast gene YDR085C): 3.4
- The level of expressed mRNA in the presence of chemical substance/The level of expressed mRNA in the absence of chemical substance (yeast gene YDR104C): 1.2
- The level of expressed mRNA in the presence of chemical substance/The level of expressed mRNA in the absence of chemical substance (yeast gene YDR115W): 1.5
- The level of expressed mRNA in the presence of chemical substance/The level of expressed mRNA in the absence of chemical substance (yeast gene YDR259C): 1.4
- The level of expressed mRNA in the presence of chemical substance/The level of expressed mRNA in the absence of chemical substance (yeast gene YDR315C): 1.3
- The level of expressed mRNA in the presence of chemical substance/The level of expressed mRNA in the absence of chemical substance (yeast gene YDR358W): 1.1
- The level of expressed mRNA in the presence of chemical substance/The level of expressed mRNA in the absence of chemical substance (yeast gene YDR388W): 1.0
- The level of expressed mRNA in the presence of chemical substance/The level of expressed mRNA in the absence of chemical substance (yeast gene YDR432W): 1.4
- The level of expressed mRNA in the presence of chemical substance/The level of expressed mRNA in the absence of chemical substance (yeast gene YDR481C): 0.7
- The level of expressed mRNA in the presence of chemical substance/The level of expressed mRNA in the absence of chemical substance (yeast gene YDR510W): 1.3
- The level of expressed mRNA in the presence of chemical substance/The level of expressed mRNA in the absence of chemical substance (yeast gene YEL042W): 0.9
- The level of expressed mRNA in the presence of chemical substance/The level of expressed mRNA in the absence of chemical substance (yeast gene YEL066W): 2.2
- The level of expressed mRNA in the presence of chemical substance/The level of expressed mRNA in the absence of chemical substance (yeast gene YER039C): 4.1
- The level of expressed mRNA in the presence of chemical substance/The level of expressed mRNA in the absence of chemical substance (yeast gene YER107C): 0.6
- The level of expressed mRNA in the presence of chemical substance/The level of expressed mRNA in the absence of chemical substance (yeast gene YER130C): 0.8
- The level of expressed mRNA in the presence of chemical substance/The level of expressed mRNA in the absence of chemical substance (yeast gene YFL022C): 0.6
- The level of expressed mRNA in the presence of chemical substance/The level of expressed mRNA in the absence of chemical substance (yeast gene YFL028C): 1.5
- The level of expressed mRNA in the presence of chemical substance/The level of expressed mRNA in the absence of chemical substance (yeast gene YFL043C): 1.2
- The level of expressed mRNA in the presence of chemical substance/The level of expressed mRNA in the absence of chemical substance (yeast gene YGL158W): 12.9
- The level of expressed mRNA in the presence of chemical substance/The level of expressed mRNA in the absence of chemical substance (yeast gene YGL229C): 0.8
- The level of expressed mRNA in the presence of chemical substance/The level of expressed mRNA in the absence of chemical substance (yeast gene YGR136W): 0.7
- The level of expressed mRNA in the presence of chemical substance/The level of expressed mRNA in the absence of chemical substance (yeast gene YGR189C): 3.5
- The level of expressed mRNA in the presence of chemical substance/The level of expressed mRNA in the absence of chemical substance (yeast gene YGR213C): 6.8
- The level of expressed mRNA in the presence of chemical substance/The level of expressed mRNA in the absence of chemical substance (yeast gene YGR257C): 1.1
- The level of expressed mRNA in the presence of chemical substance/The level of expressed mRNA in the absence of chemical substance (yeast gene YHR004C): 1.1
- The level of expressed mRNA in the presence of chemical substance/The level of expressed mRNA in the absence of chemical substance (yeast gene YHR071W): 1.6
- The level of expressed mRNA in the presence of chemical substance/The level of expressed mRNA in the absence of chemical substance (yeast gene YHR139C): 9.3
- The level of expressed mRNA in the presence of chemical substance/The level of expressed mRNA in the absence of chemical substance (yeast gene YHR142W): 0.8
- The level of expressed mRNA in the presence of chemical substance/The level of expressed mRNA in the absence of chemical substance (yeast gene YIL123W): 1.5
- The level of expressed mRNA in the presence of chemical substance/The level of expressed mRNA in the absence of chemical substance (yeast gene YIL140W): 1.4
- The level of expressed mRNA in the presence of chemical substance/The level of expressed mRNA in the absence of chemical substance (yeast gene YJL073W): 0.7
- The level of expressed mRNA in the presence of chemical substance/The level of expressed mRNA in the absence of chemical substance (yeast gene YJL089W): 0.8
- The level of expressed mRNA in the presence of chemical substance/The level of expressed mRNA in the absence of chemical substance (yeast gene YJL116C): 1.9
- The level of expressed mRNA in the presence of chemical substance/The level of expressed mRNA in the absence of chemical substance (yeast gene YJR004C): 0.6
- The level of expressed mRNA in the presence of chemical substance/The level of expressed mRNA in the absence of chemical substance (yeast gene YJR086W): 1.4
- The level of expressed mRNA in the presence of chemical substance/The level of expressed mRNA in the absence of chemical substance (yeast gene YKL008C): 0.8
